Data on 34 compounds can be found in patent US20080145453A1, “Novel Dihydropyrimidine Derivatives And Their Use As Anti-Cancer Agents” (priority 2005, published 2008).

Where only a bound is given, the exact number is not on record here.

Assay [1] deals with T1, human Eg5 (monomeric construct Eg52-386) (Homo sapiens, UniProt P52732).
T1 construct: the basal ATPase activity was measured using 1-4 μM of Eg5 (2-386) for the above test; made in house
T1 sequence (P52732 2-386): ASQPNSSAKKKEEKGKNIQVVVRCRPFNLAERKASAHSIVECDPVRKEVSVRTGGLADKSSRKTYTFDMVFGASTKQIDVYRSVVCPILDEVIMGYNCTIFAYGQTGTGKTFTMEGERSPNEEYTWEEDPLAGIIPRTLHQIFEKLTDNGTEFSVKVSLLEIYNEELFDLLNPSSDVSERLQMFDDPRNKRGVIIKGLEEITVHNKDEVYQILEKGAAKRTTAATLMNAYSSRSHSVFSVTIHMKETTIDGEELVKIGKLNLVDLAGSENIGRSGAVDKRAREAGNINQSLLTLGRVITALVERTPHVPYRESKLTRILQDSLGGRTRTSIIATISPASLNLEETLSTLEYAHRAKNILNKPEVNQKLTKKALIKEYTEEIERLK
Briefly: In vitro inhibition of the ATPase activity of kinesin Eg5 (pyruvate kinase/lactate dehydrogenase coupled assay). Type of assay: biochemical. The note with it: for % inhibition: in vitro ATPase activity of Eg5, inhibitor concentration not given; for IC50: in vitro inhibition of ATPase activity of Eg5. As to the method:
All the assays were carried out at ambient temperature using the TECAN 96-well Sunrise photometer with a final volume of 200-250 μl per well. The ATPase contents were measured using the pyruvate kinase/lactate dehydrogenase protocol in an A25A buffer (25 mM potassium ACES, pH 6.9, 2 mM magnesium acetate, 2 mM potassium EGTA, 0.1 mM potassium EDTA, 1 mM mercaptoethanol) . In the […] of MT (microtubules) stabilized with paclitaxel, 300 nM of Eg52-386 were used for the test and, in the absence of MT, the basal ATPase activity was measured using 1-4 μM of Eg5 (2-386) for the above test or the malachite green test. For optimal solubility of the inhibitor, the assays were carried out in the presence of up to 2.2% of DMSO. […] The data were analyzed using a Kaleidagraph 3.0 (Synergy Software) and Microsoft Excel, so as to obtain the IC50 values.
The IC50 values for the in vitro inhibition of the ATPase activity of the kinesin motor proteins are determined according to the method described in S. DeBonis et al. (2003) Biochemistry 42, 338-349. Monastrol was used as a positive control. When necessary, the concentrations of inhibitor were adjusted according to the initial IC50. Each concentration of inhibitor was measured one to three times and averaged data are indicated with the margins of error±the standard deviation.

In assay [2] the target is T2, kinesin Eg5 (Homo sapiens, UniProt P52732).
T2 sequence (P52732 1-1056): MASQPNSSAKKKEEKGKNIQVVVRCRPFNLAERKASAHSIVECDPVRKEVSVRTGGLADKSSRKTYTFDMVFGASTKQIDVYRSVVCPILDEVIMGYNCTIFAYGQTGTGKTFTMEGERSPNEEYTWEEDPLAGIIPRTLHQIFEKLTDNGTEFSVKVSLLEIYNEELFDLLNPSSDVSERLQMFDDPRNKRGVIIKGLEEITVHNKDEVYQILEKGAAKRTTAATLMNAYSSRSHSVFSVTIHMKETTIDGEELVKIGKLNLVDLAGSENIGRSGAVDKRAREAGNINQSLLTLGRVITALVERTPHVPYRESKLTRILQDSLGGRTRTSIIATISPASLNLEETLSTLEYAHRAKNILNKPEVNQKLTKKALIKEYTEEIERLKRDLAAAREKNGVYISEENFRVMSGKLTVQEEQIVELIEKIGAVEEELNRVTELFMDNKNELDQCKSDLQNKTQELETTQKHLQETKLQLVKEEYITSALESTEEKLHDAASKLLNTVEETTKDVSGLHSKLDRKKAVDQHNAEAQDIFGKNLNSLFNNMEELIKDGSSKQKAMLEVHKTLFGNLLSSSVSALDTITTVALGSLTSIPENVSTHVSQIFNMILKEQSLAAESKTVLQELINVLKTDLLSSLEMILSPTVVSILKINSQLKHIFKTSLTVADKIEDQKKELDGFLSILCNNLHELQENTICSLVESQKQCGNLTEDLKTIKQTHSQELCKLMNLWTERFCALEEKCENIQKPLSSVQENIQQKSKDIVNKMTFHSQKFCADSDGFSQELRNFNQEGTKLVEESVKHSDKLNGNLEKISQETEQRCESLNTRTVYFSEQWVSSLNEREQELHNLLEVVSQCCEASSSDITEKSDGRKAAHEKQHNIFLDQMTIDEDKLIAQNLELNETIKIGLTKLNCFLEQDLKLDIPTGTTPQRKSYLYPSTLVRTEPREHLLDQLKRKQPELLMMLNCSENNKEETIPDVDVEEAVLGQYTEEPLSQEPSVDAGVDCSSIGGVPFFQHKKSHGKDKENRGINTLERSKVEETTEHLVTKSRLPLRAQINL
The note with it: prior-art values given in the background; read-out: antimitotic effect IC50; cited from earlier work.

The term % inhibition denotes the change of the read-out against control, counted positive when it falls. The IC50 is the midpoint of a concentration-inhibition curve. `C=CCN1C(=S)NC(c2cccc(O)c2)C(C(=O)c2ccccc2)=C1C(F)(F)F` (stereo not drawn) [Compound 28]: in assay [1], the “% inhibition” value was determined as 70% and the IC50 is 17 µM. In the case of `CC1=C(C(=O)c2ccccc2)C(c2ccccc2)NC(=O)N1C` (stereo not drawn) [Compound 26], in assay [1], the “% inhibition” value is reported as 84% and the IC50 was determined as 5 µM. Consider `CC1=C(C(=O)OCc2ccccc2)C(c2ccccc2)NC(=S)N1` (stereo not drawn) [Compound 5], for which, in assay [1], the “% inhibition” value was found to be 40% and the IC50 is 11.8 µM. Consider `CCOC(=O)C1=C(C)NC(=S)NC1c1cccc(O)c1` (stereo not drawn) [Monastrol], for which the IC50 in assay [2] was greater than 14 µM. As to `COc1cccc(C(=O)C2=C(C)NC(=S)NC2c2cccc(O)c2)c1` (stereo not drawn) [Compound 34], in assay [1], the “% inhibition” value is “≧90%^” and the concentration for half-maximal inhibition (IC50) stood at 1.1 µM. On the same counts, the results for `CCOC(=O)C1=C(C)N(C)C(=S)NC1c1cccc(O)c1` (stereo not drawn) [Compound 8] are “≧90%^” and 6.3 µM. For `CCOC(=O)C1=C(C)NC(=S)NC1c1ccccc1` (stereo not drawn) [Compound 1] the same measures were 80% and 9.5 µM. In the case of `CCOC(=O)C1=C(C)NC(=S)NC1c1ccc(O)cc1` (stereo not drawn) [Compound 3], in assay [1], the “% inhibition” value is given as 20% and the IC50 worked out at 212 µM. For `CC1=C(C(=O)c2ccccc2)C(c2cccc(O)c2)NC(=S)N1` (stereo not drawn) [Compound 17] the same measures were “≧90%^” and 0.25 µM. In the case of `CCOC(=O)C1=C(C)NC(=S)NC1c1ccccc1F` (stereo not drawn) [Compound 22], in assay [1], the “% inhibition” value is 60% and the IC50 stood at 20 µM. For the compound `CC1=C(C(=O)c2ccccc2)C(c2cccc(O)c2)NC(=O)N1C` (stereo not drawn) [Compound 27], in assay [1], the “% inhibition” value was found to be 85% and the IC50 was determined as 0.8 µM.

In the case of `CC1=C(C(=O)OCc2ccccc2)C(c2cccc(O)c2)NC(=S)N1C` (stereo not drawn) [Compound 14], in assay [1], the “% inhibition” value turned out to be 48% and the IC50 was 9.8 µM. Take `COc1ccc(C2NC(=S)NC(C)=C2C(=O)OCc2ccccc2)cc1` (stereo not drawn) [Compound 4]: in assay [1], the “% inhibition” value was determined as 40% and the IC50 turned out to be 6.6 µM. Take `CC1=C(C(=O)c2ccccc2)C(c2cccc(O)c2)NC(=S)N1C` (stereo not drawn) [Compound 18]: the “% inhibition” value in assay [1] is recorded as “≧90%^”. `CCOC(=O)C1=C(CC)N(C)C(=S)NC1c1cccc(O)c1` (stereo not drawn) [Compound 30]: in assay [1], the “% inhibition” value was “≧90%^” and the IC50 came to 10 µM. On the same counts, the results for `CC1=C(C(=O)c2cccc(I)c2)C(c2cccc(O)c2)NC(=S)N1` (stereo not drawn) [Compound 33] are “≧90%^” and 0.5 µM. On to `CCOC(=O)C1=C(C)N(C)C(=S)NC1c1ccccc1` (stereo not drawn) [Compound 7], for which, in assay [1], the “% inhibition” value came to 60% and the IC50 is 21 µM. For the compound `CC(=O)C1=C(C)N(C)C(=S)NC1c1cccc(O)c1` (stereo not drawn) [Compound 16], in assay [1], the “% inhibition” value is recorded as 40% and the IC50 turned out to be 133 µM.

`CC(=O)C1=C(C)N(C)C(=S)NC1c1ccccc1` (stereo not drawn) [Compound 12]: in assay [1], the “% inhibition” value turned out to be 40% and the half-maximal inhibitory concentration (IC50) was found to be 80 µM. For `CCOC(=O)C1=C(C)NC(=S)NC1c1ccccc1Cl` (stereo not drawn) [Compound 24] the same measures were 60% and 32 µM. On the same counts, the results for `CCOC(=O)C1=C(C)NC(=S)NC1c1cccc(O)c1` (stereo not drawn) [Compound 2] are “≧90%^” and 16 µM. On the same counts, the results for `CCOC(=O)C1=C(C)NC(=S)NC1c1cccc(OC)c1` (stereo not drawn) [Compound 21] are 20% and 57 µM. With `CCOC(=O)C1=C(C)NC(=S)NC1c1cccc(F)c1` (stereo not drawn) [Compound 25], in assay [1], the “% inhibition” value is listed as 60% and the IC50 turned out to be 14 µM. Consider `CC1=C(C(=O)c2ccccc2)C(c2ccc(O)cc2)NC(=S)N1` (stereo not drawn) [Compound 11], for which, in assay [1], the “% inhibition” value was “≧90%^” and the IC50 is 14.7 µM. As to `CCOC(=O)C1=C(C(C)C)NC(=S)NC1c1cccc(O)c1` (stereo not drawn) [Compound 29], in assay [1], the “% inhibition” value was 80% and the 50% inhibitory concentration (IC50) is 8.5 µM.

Regarding `CC1=C(C(=O)c2cccc(Cl)c2)C(c2cccc(O)c2)NC(=S)N1` (stereo not drawn) [Compound 32], in assay [1], the “% inhibition” value is recorded as “≧90%^” and the IC50 is 0.5 µM. Consider `CC(=O)C1=C(C)NC(=S)NC1c1cccc(O)c1` (stereo not drawn) [Compound 15], for which, in assay [1], the “% inhibition” value is on record as “≧90%^” and the IC50 amounted to 0.51 µM. For `CC1=C(C(=O)c2ccccc2)C(c2ccc(O)cc2)NC(=S)N1C` (stereo not drawn) [Compound 19] the same measures were 87% and 24 µM. For the compound `CCOC(=O)C1=C(C)NC(=S)NC1c1cccc(Cl)c1` (stereo not drawn) [Compound 20], in assay [1], the “% inhibition” value was determined as 60% and the IC50 came out at 10 µM. On the same counts, the results for `CC(=O)C1=C(C)NC(=S)NC1c1ccccc1` (stereo not drawn) [Compound 9] are “≧90%^” and 24 µM. On to `CC1=C(C(=O)c2cccc(F)c2)C(c2cccc(O)c2)NC(=S)N1` (stereo not drawn) [Compound 31], for which, in assay [1], the “% inhibition” value turned out to be 87% and the IC50 was determined as 0.82 µM. On to `CC1=C(C(=O)c2ccccc2)C(c2ccccc2)NC(=S)N1C` (stereo not drawn) [Compound 13], for which, in assay [1], the “% inhibition” value was “≧90%^” and the IC50 was 1.1 µM. On the same counts, the results for `CC(=O)C1=C(C)NC(=S)NC1c1ccc(O)cc1` (stereo not drawn) [Compound 10] are 80% and 56 µM.

Consider `CC1=C(C(=O)OCc2ccccc2)C(c2cccc(O)c2)NC(=S)N1` (stereo not drawn) [Compound 6], for which, in assay [1], the “% inhibition” value is on record as “≧90%^” and the IC50 turned out to be 10.3 µM.
